Measured values as given in ChEMBL document CHEMBL3994662, “In vivo instability of platensimycin and platencin: Synthesis and biological evaluation of urea- and carbamate-platensimycin” (Bioorg Med Chem, 2017).
≈ marks a conversion by molar mass, not a printed value.

Experiments:
[1] = Volume of distribution in C57Bl/6 mouse at 10 mg/kg, iv administered as single dose by LC-MS/MS analysis; type: ADME, organism-based; settings: in vivo
[2] = Observed clearance in C57Bl/6 mouse at 10 mg/kg, iv administered as single dose by LC-MS/MS analysis; type: ADME, organism-based; settings: in vivo
Plasma [3] = test: Drug uptake in C57Bl/6 mouse plasma at 10 mg/kg, iv administered as single dose measured after 60 mins by LC-MS/MS analysis; type: ADME, organism-based; settings: in vivo, 1 h
Mus musculus [4] = test: AUC (0 to 8 hrs) in C57Bl/6 mouse at 10 mg/kg, iv administered as single dose by LC-MS/MS analysis; type: ADME, organism-based; parameters: dose 10 mg/kg, time < 8 hr, route intravenous; settings: in vivo
Mus musculus [5] = test: Cmax in C57Bl/6 mouse assessed as platensimycin level at 10 mg/kg, iv administered as single dose by LC-MS/MS analysis; type: ADME, organism-based; parameters: dose 10 mg/kg, route intravenous; settings: in vivo
Mus musculus [6] = test: Volume of distribution in C57Bl/6 mouse assessed as platensimycin level at 10 mg/kg, iv administered as single dose by LC-MS/MS analysis; type: ADME, organism-based; settings: in vivo
[7] = Elimination half life in C57Bl/6 mouse at 10 mg/kg, iv administered as single dose by LC-MS/MS analysis; type: ADME, organism-based; settings: in vivo, read-out: beta t1/2 (converted)
Mus musculus [8] = test: Elimination half life in C57Bl/6 mouse assessed as platensimycin level at 10 mg/kg, iv administered as single dose by LC-MS/MS analysis; type: ADME, organism-based; settings: in vivo
[9] = Drug level in C57Bl/6 mouse urine at 10 mg/kg, iv administered as single dose measured after 60 mins by LC-MS/MS analysis; type: ADME, organism-based; settings: for Drug uptake: mouse, in vivo, 1 h
[10] = Drug level in C57Bl/6 mouse urine assessed as platensimycin level at 10 mg/kg, iv administered as single dose measured after 60 mins by LC-MS/MS analysis; type: ADME, organism-based; settings: in vivo, 1 h
Mus musculus [11] = test: AUC (0 to 8 hrs) in C57Bl/6 mouse assessed as platensimycin level at 10 mg/kg, iv administered as single dose by LC-MS/MS analysis; type: ADME, organism-based; parameters: dose 10 mg/kg, time < 8 hr, route intravenous; settings: in vivo
[12] = Ratio of drug level in C57Bl/6 mouse liver to plasma at 10 mg/kg, iv administered as single dose measured after 60 mins by LC-MS/MS analysis; type: ADME, organism-based
[13] = Ratio of drug level in C57Bl/6 mouse kidney to plasma at 10 mg/kg, iv administered as single dose measured after 60 mins by LC-MS/MS analysis; type: ADME, organism-based
Plasma [14] = test: Drug metabolism in C57Bl/6 mouse plasma assessed as platensimycin formation at 10 mg/kg, iv administered as single dose measured after 60 mins by LC-MS/MS analysis; type: ADME, organism-based; settings: in vivo, 1 h
[15] = Cmax in C57Bl/6 mouse at 10 mg/kg, iv administered as single dose by LC-MS/MS analysis; type: ADME, organism-based; parameters: dose 10 mg/kg, route intravenous; settings: in vivo
Mus musculus [16] = test: Elimination half life in C57Bl/6 mouse assessed as platensimycin ML12 level at 10 mg/kg, iv administered as single dose by LC-MS/MS analysis; type: ADME, organism-based; settings: in vivo
Mus musculus [17] = test: AUC (0 to 8 hrs) in C57Bl/6 mouse assessed as platensimycin ML12 level at 10 mg/kg, iv administered as single dose by LC-MS/MS analysis; type: ADME, organism-based; parameters: dose 10 mg/kg, time < 8 hr, route intravenous; settings: in vivo
Mus musculus [18] = test: Cmax in C57Bl/6 mouse assessed as platensimycin ML12 level at 10 mg/kg, iv administered as single dose by LC-MS/MS analysis; type: ADME, organism-based; parameters: dose 10 mg/kg, route intravenous; settings: in vivo
[19] = In vivo stability in C57Bl/6 mouse urine assessed as compound hydrolysis at 10 mg/kg, iv administered as single dose measured after 60 mins by LC-MS/MS analysis; type: ADME, organism-based; settings: 1 h
Micrococcus luteus = test: Antibacterial activity against Micrococcus luteus ATCC 9431 after 18 hrs by broth dilution method; type: functional; settings: ATCC 9431, 18 h
Staphylococcus aureus = test: Antibacterial activity against Staphylococcus aureus ATCC 25923 after 18 hrs by broth dilution method; type: functional; settings: ATCC 25923, 18 h
Liver [20] = test: Drug uptake in C57Bl/6 mouse liver at 10 mg/kg, iv administered as single dose measured after 60 mins by LC-MS/MS analysis; type: ADME, organism-based; settings: in vivo, 1 h
Liver [21] = test: In vivo stability in C57Bl/6 mouse liver assessed as compound hydrolysis at 10 mg/kg, iv administered as single dose measured after 60 mins by LC-MS/MS analysis; type: ADME, organism-based; settings: 1 h
Kidney [22] = test: Drug uptake in C57Bl/6 mouse kidney at 10 mg/kg, iv administered as single dose measured after 60 mins by LC-MS/MS analysis; type: ADME, organism-based; settings: in vivo, 1 h
Kidney [23] = test: In vivo stability in C57Bl/6 mouse kidney assessed as compound hydrolysis at 10 mg/kg, iv administered as single dose measured after 60 mins by LC-MS/MS analysis; type: ADME, organism-based; settings: 1 h
Plasma [24] = test: In vivo stability in C57Bl/6 mouse plasma assessed as compound hydrolysis at 10 mg/kg, iv administered as single dose measured after 60 mins by LC-MS/MS analysis; type: ADME, organism-based; settings: 1 h
[25] = Drug level in mouse hepatic microsomes treated with platensimycin at 1 uM up to 60 mins in absence of NADPH by LC-MS/MS analysis; type: ADME, Liver, Microsome; settings: 1 h
[26] = Drug level in mouse hepatic microsomes treated with platensimycin at 1 uM up to 60 mins in presence of NADPH by LC-MS/MS analysis; type: ADME, Liver, Microsome; settings: 1 h
[27] = Cmax in C57Bl/6 mouse at 3 mg/kg, iv administered as single dose by LC-MS/MS analysis; type: ADME, organism-based; parameters: dose 3 mg/kg, route intravenous; settings: in vivo
[28] = Elimination half life in C57Bl/6 mouse at 3 mg/kg, iv administered as single dose by LC-MS/MS analysis; type: ADME, organism-based; settings: in vivo, read-out: beta t1/2 (converted)
[29] = Observed clearance in C57Bl/6 mouse at 3 mg/kg, iv administered as single dose by LC-MS/MS analysis; type: ADME, organism-based; settings: in vivo
Lung [30] = test: In vivo stability in C57Bl/6 mouse lung assessed as compound hydrolysis at 10 mg/kg, iv administered as single dose measured after 60 mins by LC-MS/MS analysis; type: ADME, organism-based; settings: 1 h
Brain = test: In vivo stability in C57Bl/6 mouse brain assessed as compound hydrolysis at 10 mg/kg, iv administered as single dose measured after 60 mins by LC-MS/MS analysis; type: ADME, organism-based; settings: 1 h
[31] = Drug uptake in C57Bl/6 mouse muscle at 10 mg/kg, iv administered as single dose measured after 60 mins by LC-MS/MS analysis; type: ADME, organism-based, Muscle tissue; settings: in vivo, 1 h
Mus musculus [32] = test: AUC (0 to 8 hrs) in C57Bl/6 mouse at 10 mg/kg, po administered as single dose via gavage by LC-MS/MS analysis; type: ADME, organism-based; parameters: time < 8 hr, dose 10 mg/kg, route oral; settings: in vivo
[33] = Cmax in C57Bl/6 mouse at 10 mg/kg, po administered as single dose via gavage by LC-MS/MS analysis; type: ADME, organism-based; parameters: dose 10 mg/kg, route oral; settings: in vivo
[34] = In vivo stability in C57Bl/6 mouse adipose tissue assessed as compound hydrolysis at 10 mg/kg, iv administered as single dose measured after 60 mins by LC-MS/MS analysis; type: ADME, organism-based; settings: 1 h
Lung [35] = test: Drug uptake in C57Bl/6 mouse lung at 10 mg/kg, iv administered as single dose measured after 60 mins by LC-MS/MS analysis; type: ADME, organism-based; settings: in vivo, 1 h
Mus musculus [36] = test: AUC (0 to 8 hrs) in C57Bl/6 mouse at 3 mg/kg, iv administered as single dose by LC-MS/MS analysis; type: ADME, organism-based; parameters: dose 3 mg/kg, time < 8 hr, route intravenous; settings: in vivo
[37] = Ratio of drug level in C57Bl/6 mouse muscle to plasma at 10 mg/kg, iv administered as single dose measured after 60 mins by LC-MS/MS analysis; type: ADME, organism-based, Muscle tissue/plasma
[38] = In vivo stability in C57Bl/6 mouse muscle assessed as compound hydrolysis at 10 mg/kg, iv administered as single dose measured after 60 mins by LC-MS/MS analysis; type: ADME, organism-based, Muscle tissue; settings: 1 h
[39] = Elimination half life in C57Bl/6 mouse at 10 mg/kg, po administered as single dose via gavage by LC-MS/MS analysis; type: ADME, organism-based; settings: in vivo, read-out: beta t1/2 (converted)
[40] = Drug uptake in C57Bl/6 mouse adipose tissue at 10 mg/kg, iv administered as single dose measured after 60 mins by LC-MS/MS analysis; type: ADME, organism-based; settings: in vivo, 1 h
[41] = Oral bioavailability in C57Bl/6 mouse at 10 mg/kg administered as single dose via gavage by LC-MS/MS analysis; type: ADME, organism-based; settings: in vivo
[42] = Ratio of drug level in C57Bl/6 mouse lung to plasma at 10 mg/kg, iv administered as single dose measured after 60 mins by LC-MS/MS analysis; type: ADME, organism-based
[43] = Volume of distribution in C57Bl/6 mouse at 3 mg/kg, iv administered as single dose by LC-MS/MS analysis; type: ADME, organism-based; settings: in vivo

C[C@]12C[C@@]34C=CC(=O)[C@@](C)(CCC(=O)Nc5c(O)ccc(C(=O)S[C@H]6CC(=O)[C@@](C)(CCC(=O)Nc7c(O)ccc(C(=O)O)c7O)[C@@H]7[C@@H]8C[C@@H]9C[C@]67C[C@]9(C)O8)c5O)[C@@H]3[C@H](C[C@@H]1C4)O2
Vd [1]: 0.33 L/kg
clearance [2]: 11 mL/min/kg
Drug uptake (Plasma [3]): Active
AUC (Mus musculus [4]): 18 µM·h
Cmax (Mus musculus [5]): 15 µM
Vd (Mus musculus [6]): 2.5 L/kg
half-life [7]: 1.1 h
beta t1/2 (Mus musculus [8]): 1.9 h
dose excreted at 1 h ([9]; C57Bl/6, mouse, urine, read-out: Drug uptake): < 1%
Drug uptake [10]: < 1%
AUC (Mus musculus [11]): 6.3 µM·h
Kp at 1 h [12]: 0.6
Kp at 1 h [13]: 0.2
Drug metabolism (Plasma [14]): Metabolite_Detected
Cmax [15]: 38 µM

C[C@@]1(O)C[C@]23C[C@H]1CC[C@H]2[C@]1(C)CCC(=O)Nc2c(O)ccc(c2O)C(=O)S[C@H]2CC(=O)[C@@](C)(CCC(=O)Nc4c(O)ccc(c4O)C(=O)S[C@H]3CC1=O)[C@@H]1CC[C@@H]3C[C@]21C[C@@]3(C)O
beta t1/2 (Mus musculus [16]): 1.8 h
Vd [1]: 0.08 L/kg
clearance [2]: 3 mL/min/kg
AUC (Mus musculus [17]): 2.5 µM·h
AUC (Mus musculus [4]): 71 µM·h
half-life [7]: 0.76 h
Cmax (Mus musculus [18]): 2.3 µM
Cmax [15]: 150 µM

C[C@]12C[C@@]34C=CC(=O)[C@@](C)(CCNC(=O)Nc5c(O)ccc(C(=O)O)c5O)[C@@H]3[C@H](C[C@@H]1C4)O2
Stability [19]: Stable
Drug uptake (Plasma [3]): Active
MIC (Micrococcus luteus): > 64 µg/mL
MIC (Staphylococcus aureus): > 64 µg/mL
Drug uptake (Liver [20]): Active
Stability (Liver [21]): Stable
Drug uptake (Kidney [22]): Active
Stability (Kidney [23]): Stable
Drug uptake [9]: Active
Stability (Plasma [24]): Stable

C[C@]12C[C@@]34C=CC(=O)[C@@](C)(CCC(=O)O)[C@@H]3[C@H](C[C@@H]1C4)O2
Drug metabolism [25]: Metabolite_Detected
Drug metabolism [26]: Metabolite_Detected

COC(=O)c1ccc(O)c(NC(=O)NCC[C@]2(C)C(=O)C=C[C@]34C[C@H]5C[C@H](O[C@@]5(C)C3)[C@H]42)c1O
MIC (Micrococcus luteus): 64 µg/mL (≈ 136 µM)
MIC (Staphylococcus aureus): > 64 µg/mL

C[C@]12C[C@@]34C=CC(=O)[C@@](C)(CCNC(=O)Oc5c(O)ccc(C(=O)O)c5O)[C@@H]3[C@H](C[C@@H]1C4)O2
Stability [19]: Stable
Drug uptake (Plasma [3]): Active
MIC (Micrococcus luteus): > 64 µg/mL
MIC (Staphylococcus aureus): > 64 µg/mL
Drug uptake (Liver [20]): Active
Stability (Liver [21]): Stable
Drug uptake (Kidney [22]): Active
Stability (Kidney [23]): Stable
Drug uptake [9]: Active
Stability (Plasma [24]): Stable

C=C1C[C@@]23C=CC(=O)[C@@](C)(CCC(=O)Nc4c(O)ccc(C(=O)O)c4O)[C@@H]2C[C@@H]1CC3 [PLATENCIN]
Stability [19]: Unstable
Cmax [27]: 11 µM
Drug uptake (Plasma [3]): Active
half-life [28]: 0.22 h
clearance [29]: 23 mL/min/kg
Stability (Lung [30]): Stable
Stability (Brain): Stable
Drug uptake [31]: Active
AUC (Mus musculus [32]): 2.3 µM·h
Cmax [33]: 4 µM
Drug uptake (Liver [20]): Active
Stability (Liver [21]): Unstable
Drug uptake (Kidney [22]): Active
Stability [34]: Stable
Stability (Kidney [23]): Unstable
Drug uptake (Lung [35]): Active
AUC (Mus musculus [36]): 6.8 µM·h
Kp at 1 h [37]: 0.1
Stability [38]: Stable
half-life [39]: 1.3 h
Kp at 1 h [12]: 3.8
Kp at 1 h [13]: 1.4
Drug uptake [40]: Not Active
bioavailability [41]: 10%
Stability (Plasma [24]): Unstable
Kp at 1 h [42]: 0.4
Vd [43]: 0.46 L/kg
